How the values were obtained:
[1] = tested on: human embryonic stem cell derived neural stem cells (NSCs); experiment: Neural Stem Cell Proliferation Assay (neurogenesis assay, ATP levels by CellTiterGlo); format: cell-based; settings: 96 h, compound concentration at which 150% activity of control (100%) is reached, NSC proliferation by ATP level after 4 days incubation, dose response 8 μM to 8 nM
In short: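 Human ESC-derived NSCs (dual SMAD inhibition) seeded 4 h before compounds, 11-point 2-fold series 8 μM–8 nM; 4 days at 37 °C, 5% CO2. ATP by CellTiterGlo luminescence as cell-number proxy, response as % of media control (0.25% DMSO); EC150 = concentration giving 150% of control.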

SMILES | melting point | EC (150% of control) [1]
Cc1c2n(c3c(-c4ccc(N(C)C)nc4)cc(Cl)cc13)CCNC2=O [Example 154, 8-Chloro-6-(6-dimethylamino-pyridin-3-yl)-10-methyl-3,4-dihydro-2H-pyrazino[1,2-a]indol-1-one] | 248 °C | 0.022 µM
Cc1c2n(c3c(-c4cncnc4)cc(F)cc13)CCNC2=O [Example 155, 8-Fluoro-10-methyl-6-pyrimidin-5-yl-3,4-dihydro-2H-pyrazino[1,2-a]indol-1-one] | 289 °C | 0.57 µM
COc1ncc(-c2cc(F)cc3c(C)c4n(c23)CCNC4=O)cn1 [Example 156, 8-Fluoro-6-(2-methoxy-pyrimidin-5-yl)-10-methyl-3,4-dihydro-2H-pyrazino[1,2-a]indol-1-one] | 271 °C | 0.11 µM
Cc1c2n(c3c(-c4cnc(N)nc4)cc(F)cc13)CCNC2=O [Example 157, 6-(2-Amino-pyrimidin-5-yl)-8-fluoro-10-methyl-3,4-dihydro-2H-pyrazino[1,2-a]indol-1-one] | 310 °C | 0.19 µM
Cc1c2n(c3c(-c4ccc(N(C)C)nc4)cc(F)cc13)CCNC2=O [Example 158, 6-(6-Dimethylamino-pyridin-3-yl)-8-fluoro-10-methyl-3,4-dihydro-2H-pyrazino[1,2-a]indol-1-one] | 259 °C | 0.012 µM
Cc1c2n(c3c(-c4cc(F)c(F)c(F)c4)cc(F)cc13)CCNC2=O [Example 159, 8-Fluoro-10-methyl-6-(3,4,5-trifluoro-phenyl)-3,4-dihydro-2H-pyrazino[1,2-a]indol-1-one] | 250 °C | 0.22 µM
Cc1c2n(c3c(-c4ccc(N)nc4)cc(F)cc13)CCNC2=O [Example 160, 6-(6-Amino-pyridin-3-yl)-8-fluoro-10-methyl-3,4-dihydro-2H-pyrazino[1,2-a]indol-1-one] | 254 °C | 0.18 µM
Cc1c2n(c3c(-c4ccc(N)nc4)cc(Cl)cc13)CCNC2=O [Example 161, 6-(6-Amino-pyridin-3-yl)-8-chloro-10-methyl-3,4-dihydro-2H-pyrazino[1,2-a]indol-1-one] | 250 °C | 0.27 µM
Cc1c2n(c3c(-c4ccc(F)cc4)cc(C#N)cc13)CCNC2=O [Example 162, 6-(4-Fluoro-phenyl)-10-methyl-1-oxo-1,2,3,4-tetrahydro-pyrazino[1,2-a]indole-8-carbonitrile] | 292 °C | 0.021 µM
Cc1c2n(c3c(-c4ccc(Cl)cc4)cc(C#N)cc13)CCNC2=O [Example 163, 6-(4-Chloro-phenyl)-10-methyl-1-oxo-1,2,3,4-tetrahydro-pyrazino[1,2-a]indole-8-carbonitrile] | 298 °C | 0.013 µM
Cc1c2n(c3c(-c4ccc(F)c(F)c4)cc(C#N)cc13)CCNC2=O [Example 164, 6-(3,4-Difluoro-phenyl)-10-methyl-1-oxo-1,2,3,4-tetrahydro-pyrazino[1,2-a]indole-8-carbonitrile] | 243 °C | 0.045 µM
Cc1c2n(c3c(-c4ccc(C(F)(F)F)cc4)cc(C#N)cc13)CCNC2=O [Example 165, 10-Methyl-1-oxo-6-(4-trifluoromethyl-phenyl)-1,2,3,4-tetrahydro-pyrazino[1,2-a]indole-8-carbonitrile] | 282 °C | 0.018 µM
Cc1c2n(c3c(-c4ccc(C#N)cc4)cc(C#N)cc13)CCNC2=O [Example 166, 6-(4-Cyano-phenyl)-10-methyl-1-oxo-1,2,3,4-tetrahydro-pyrazino[1,2-a]indole-8-carbonitrile] | 323 °C | 0.028 µM
Cc1c2n(c3c(-c4ccc(Cl)cc4Cl)cc(C#N)cc13)CCNC2=O [Example 167, 6-(2,4-Dichloro-phenyl)-10-methyl-1-oxo-1,2,3,4-tetrahydro-pyrazino[1,2-a]indole-8-carbonitrile] | 274 °C | 0.002 µM
